# Molecular target: T1, SIRT1 (Homo sapiens, UniProt Q96EB6)
# T1 sequence (Q96EB6 1-747): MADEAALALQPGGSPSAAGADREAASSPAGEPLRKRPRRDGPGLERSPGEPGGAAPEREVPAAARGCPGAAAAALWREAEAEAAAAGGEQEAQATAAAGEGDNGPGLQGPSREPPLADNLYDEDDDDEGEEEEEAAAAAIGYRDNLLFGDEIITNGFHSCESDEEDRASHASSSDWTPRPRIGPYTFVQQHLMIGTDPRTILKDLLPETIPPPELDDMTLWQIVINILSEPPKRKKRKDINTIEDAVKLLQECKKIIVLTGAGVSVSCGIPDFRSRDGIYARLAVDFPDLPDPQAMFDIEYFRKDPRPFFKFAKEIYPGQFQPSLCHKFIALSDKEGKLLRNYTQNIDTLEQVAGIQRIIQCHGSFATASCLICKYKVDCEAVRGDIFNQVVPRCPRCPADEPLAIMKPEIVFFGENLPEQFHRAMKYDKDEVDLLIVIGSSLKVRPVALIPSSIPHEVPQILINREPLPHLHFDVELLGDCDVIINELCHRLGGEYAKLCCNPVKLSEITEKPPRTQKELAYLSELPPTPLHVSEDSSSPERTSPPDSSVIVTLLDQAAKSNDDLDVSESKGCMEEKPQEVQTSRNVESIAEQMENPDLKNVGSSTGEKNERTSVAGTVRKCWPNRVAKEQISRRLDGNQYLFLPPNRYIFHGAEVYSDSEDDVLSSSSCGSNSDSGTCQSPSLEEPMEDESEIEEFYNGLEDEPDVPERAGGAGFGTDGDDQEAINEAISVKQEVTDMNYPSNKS
# Assay: Trp mass spectrometry assay of SIRT1 activation
# Assay type: biochemical
# Conditions: Trp peptide assay; for TRP Activity (EC1.5): EC1.5 = concentration that results in 150% activation of SIRT1; for Emax: maximum activity relative to control (100%), read-out: TRP MAX RESP (percent maximum fold activation)
# Procedure, shortened: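 N-terminal His-tagged human SIRT1 (10 nM, E. coli BL21(DE3)) with 0.5 μM Ac-RHKK(Ac)W-NH2 peptide and 120 μM βNAD+, 25 min at 25 °C in HEPES pH 7.5, formic acid stop. OAADPR or deacetylated peptide quantified by mass spectrometry; EC1.5 (50% activity increase over control) and Percent Maximum Activation reported.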
TRP Activity (EC1.5),Emax,Compound
C (C (EC1.5>25 μM)),< 150%,"Cc1cc(-c2ccc3c(n2)N(C(=O)Nc2cnc(C(F)(F)F)cn2)[C@H]2CCN3C2)ccn1 [(9S)-5-(2-methylpyridin-4-yl)-N-[5-(trifluoromethyl)pyrazin-2-yl]-1,6,8-triazatricyclo[7.2.1.0 {2,7}]dodeca-2(7),3,5-triene-8-carboxamide]"
A (A (EC1.5<1 μM)),> 150%,"Cc1cc(-c2ccc3c(n2)N(C(=O)Nc2cncc(C(C)C)n2)[C@H]2CCN3C2)ccn1 [(9S)-5-(2-methylpyridin-4-yl)-N-[6-(propan-2-yl)pyrazin-2-yl]-1,6,8-triazatricyclo[7.2.1.0^2,7]dodeca-2(7),3,5-triene-8-carboxamide]"
A (A (EC1.5<1 μM)),> 150%,"Cc1cc(-c2ccc3c(n2)N(C(=O)Nc2cncc(OC(C)C)n2)[C@H]2CCN3C2)ccn1 [(9S)-5-(2-methylpyridin-4-yl)-N-[6-(propan-2-yloxy)pyrazin-2-yl]-1,6,8-triazatricyclo[7.2.1.0 {2,7}]dodeca-2(7),3,5-triene-8-carboxamide]"
C (C (EC1.5>25 μM)),< 150%,"Cc1cc(-c2ccc3c(n2)N(C(=O)N[C@H](C)c2ccccn2)[C@H]2CCN3C2)ccn1 [(9S)-5-(2-methylpyridin-4-yl)-N-[(1R)-1-(pyridin-2-yl)ethyl]-1,6,8-triazatricyclo[7.2.1.0 {2,7}]dodeca-2,4,6-triene-8-carboxamide]"
C (C (EC1.5>25 μM)),< 150%,"Cc1cc(-c2ccc3c(n2)N(C(=O)N[C@@H](C)c2ccccn2)[C@H]2CCN3C2)ccn1 [(9S)-5-(2-methylpyridin-4-yl)-N-[(1S)-1-(pyridin-2-yl)ethyl]-1,6,8-triazatricyclo[7.2.1.0 {2,7}]dodeca-2,4,6-triene-8-carboxamide]"
A (A (EC1.5<1 μM)),> 150%,"Cc1cc(-c2ccc3c(n2)N(C(=O)Nc2cc4cn[nH]c4cn2)[C@H]2CCN3C2)ccn1 [(9S)-5-(2-methylpyridin-4-yl)-N-{1H-pyrazolo[3,4-c]pyridin-5-yl}-1,6,8-triazatricyclo[7.2.1.0 {2,7}]dodeca-2(7),3,5-triene-8-carboxamide]"
A (A (EC1.5<1 μM)),> 150%,"Cc1cc(-c2ccc3c(n2)N(C(=O)Nc2ccc4[nH]ncc4n2)[C@H]2CCN3C2)ccn1 [(9S)-5-(2-methylpyridin-4-yl)-N-{1H-pyrazolo[4,3-b]pyridin-5-yl}-1,6,8-triazatricyclo[7.2.1.0 {2,7}]dodeca-2(7),3,5-triene-8-carboxamide]"
C (C (EC1.5>25 μM)),< 150%,"Cc1cc(-c2ccc3c(n2)N(C(=O)Nc2ncnc4[nH]nnc24)[C@H]2CCN3C2)ccn1 [(9S)-5-(2-methylpyridin-4-yl)-N-{3H-[1,2,3]triazolo[4,5-d]pyrimidin-7-yl}-1,6,8-triazatricyclo[7.2.1.0^{2,7}]dodeca-2,4,6-triene-8-carboxamide]"
B (B (EC1.5 1-25 μM)),> 150%,"Cc1cc(-c2ccc3c(n2)N(C(=O)Nc2nccc4nccnc24)[C@H]2CCN3C2)ccn1 [(9S)-5-(2-methylpyridin-4-yl)-N-{pyrido[3,4-b]pyrazin-5-yl}-1,6,8-triazatricyclo[7.2.1.0 {2,7}]dodeca-2,4,6-triene-8-carboxamide]"
B (B (EC1.5 1-25 μM)),> 150%,"Cc1ncc(-c2ccc3c(n2)N(C(=O)Nc2cnccn2)[C@H]2CCN3C2)cn1 [(9S)-5-(2-methylpyrimidin-5-yl)-N-(pyrazin-2-yl)-1,6,8-triazatricyclo[7.2.1.0 {2,7}]dodeca-2(7),3,5-triene-8-carboxamide]"
B (B (EC1.5 1-25 μM)),> 150%,"Cc1cc(-c2ccc3c(n2)N(C(=O)Nc2cnccn2)[C@H]2CCN3C2)[nH]n1 [(9S)-5-(3-methyl-1H-pyrazol-5-yl)-N-(pyrazin-2-yl)-1,6,8-triazatricyclo[7.2.1.0^{2,7}]dodeca-2(7),3,5-triene-8-carboxamide]"
C (C (EC1.5>25 μM)),< 150%,"Cc1cc(C)c(-c2ccc3c(n2)N(C(=O)Nc2cnccn2)[C@H]2CCN3C2)cn1 [(9S)-5-(4,6-dimethylpyridin-3-yl)-9-N-(pyrazin-2-yl)-1,6,8-triazatricyclo[7.2.1.0 {2,7}]dodeca-2(7),3,5-triene-8-carboxamide]"
B (B (EC1.5 1-25 μM)),> 150%,"Cc1cc(C)c(-c2ccc3c(n2)N(C(=O)Nc2cccnc2)[C@H]2CCN3C2)cn1 [(9S)-5-(4,6-dimethylpyridin-3-yl)-N-(pyridin-3-yl)-1,6,8-triazatricyclo[7.2.1.0 {2,7}]dodeca-2(7),3,5-triene-8-carboxamide]"
B (B (EC1.5 1-25 μM)),> 150%,"CN1CCN(c2ccc3c(n2)N(C(=O)Nc2cnccn2)[C@H]2CCN3C2)CC1 [(9S)-5-(4-methylpiperazin-1-yl)-N-(pyrazin-2-yl)-1,6,8-triazatricyclo[7.2.1.0 {2,7}]dodeca-2(7),3,5-triene-8-carboxamide]"
B (B (EC1.5 1-25 μM)),> 150%,"CC1CCN(c2ccc3c(n2)N(C(=O)Nc2cnccn2)[C@H]2CCN3C2)CC1 [(9S)-5-(4-methylpiperidin-1-yl)-N-(pyrazin-2-yl)-1,6,8-triazatricyclo[7.2.1.0 {2,7}]dodeca-2,4,6-triene-8-carboxamide]"
A (A (EC1.5<1 μM)),> 150%,"Cc1cc(-c2ccc3c(n2)N(C(=O)Nc2cnccn2)[C@H]2CCN3C2)cnc1C [(9S)-5-(5,6-dimethylpyridin-3-yl)-N-(pyrazin-2-yl)-1,6,8-triazatricyclo[7.2.1.0 {2,7}]dodeca-2(7),3,5-triene-8-carboxamide]"
C (C (EC1.5>25 μM)),< 150%,"CCOc1ncc(-c2ccc3c(n2)N(C(=O)Nc2cnccn2)[C@H]2CCN3C2)cc1C#N [(9S)-5-(5-cyano-6-ethoxypyridin-3-yl)-N-(pyrazin-2-yl)-1,6,8-triazatricyclo[7.2.1.0^{2,7}]dodeca-2(7),3,5-triene-8-carboxamide]"
B (B (EC1.5 1-25 μM)),> 150%,"Cc1cc(-c2ccc3c(n2)N(C(=O)Nc2cnccn2)[C@H]2CCN3C2)c(F)cn1 [(9S)-5-(5-fluoro-2-methylpyridin-4-yl)-N-(pyrazin-2-yl)-1,6,8-triazatricyclo[7.2.1.0 {2,7}]dodeca-2(7),3,5-triene-8-carboxamide]"
B (B (EC1.5 1-25 μM)),> 150%,"Cc1ncc(-c2ccc3c(n2)N(C(=O)Nc2cnccn2)[C@H]2CCN3C2)cc1F [(9S)-5-(5-fluoro-6-methylpyridin-3-yl)-N-(pyrazin-2-yl)-1,6,8-triazatricyclo[7.2.1.0 {2,7}]dodeca-2(7),3,5-triene-8-carboxamide]"
B (B (EC1.5 1-25 μM)),> 150%,"Cc1ncc(-c2ccc3c(n2)N(C(=O)Nc2cccnc2)[C@H]2CCN3C2)cc1F [(9S)-5-(5-fluoro-6-methylpyridin-3-yl)-N-(pyridin-3-yl)-1,6,8-triazatricyclo[7.2.1.0 {2,7}]dodeca-2(7),3,5-triene-8-carboxamide]"

# Reference: patent US9834558B2, “Substituted bridged urea analogs as sirtuin modulators” (GLAXOSMITHKLINE LLC, priority 2013, dated 2017)
